Measurements: PubChem BioAssay (NCI)
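The compound was tested at five concentrations on cells cultured in 96-well plates, with a 48-hour exposure period. GI50 = concentration required for 50% inhibition of growth. Definition used: TGI = concentration required for complete inhibition of growth.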

Columns and labels:
Experiment in all cases: growth of human tumour cells (NCI), 48 h
HS 578T breast = system: HS 578T breast
UACC-257 melanoma = system: UACC-257 melanoma
OVCAR-8 ovarian = system: OVCAR-8 ovarian
IGROV1 ovarian = system: IGROV1 ovarian
OVCAR-3 ovarian = system: OVCAR-3 ovarian
SW-620 colon = system: SW-620 colon
SK-MEL-5 melanoma = system: SK-MEL-5 melanoma
HCC-2998 colon = system: HCC-2998 colon
K-562 leukemia = system: K-562 leukemia
NCI-H23 lung = system: NCI-H23 lung

SMILES	GI50 (HS 578T breast)	TGI (HS 578T breast)	GI50 (UACC-257 melanoma)	TGI (UACC-257 melanoma)	GI50 (OVCAR-8 ovarian)	TGI (OVCAR-8 ovarian)	GI50 (IGROV1 ovarian)	TGI (IGROV1 ovarian)	GI50 (OVCAR-3 ovarian)	TGI (OVCAR-3 ovarian)	GI50 (SW-620 colon)	TGI (SW-620 colon)	GI50 (SK-MEL-5 melanoma)	TGI (SK-MEL-5 melanoma)	GI50 (HCC-2998 colon)	TGI (HCC-2998 colon)	GI50 (K-562 leukemia)	TGI (K-562 leukemia)	GI50 (NCI-H23 lung)	TGI (NCI-H23 lung)
CNC(=O)c1ncccc1Nc1nc(Nc2cc3c(cc2OC)CCCN3C(=O)CN(C)C)nc2[nH]ccc12	1.21 µM	5.69 µM	0.395 µM	4.71 µM	1.25 µM	5.1 µM	3.52 µM	8.66 µM	0.986 µM	3.39 µM	0.224 µM	3.22 µM	0.618 µM	3.37 µM	0.518 µM	4.12 µM	1.88 µM	7.55 µM	0.476 µM	3.07 µM
Nc1ncnc2c1N=C(c1ccc3c(c1)OCO3)CC(c1ccc(Cl)cc1)N2 (centres undefined)	1.07 µM	7.09 µM	> 100 µM	> 100 µM	4.66 µM	25.1 µM	0.351 µM	3.76 µM	3.71 µM	18.6 µM	4.91 µM	> 100 µM	85.1 µM	> 100 µM	5.88 µM	35 µM	4.27 µM	> 100 µM	21.4 µM	> 100 µM
N#CC1(c2ccc(NC(=O)c3cccnc3NCc3ccncc3)cc2)CCCC1	9.86 µM	50.2 µM	17.7 µM	> 68.9 µM	21.1 µM	> 83.3 µM	20.5 µM	> 89.8 µM	14.8 µM	70 µM	24.2 µM	72.1 µM	4.96 µM	18 µM	25.8 µM	> 100 µM	5.79 µM	> 51 µM	12.8 µM	41.8 µM
CN[C@@H](C)C(=O)N[C@H]1CN(S(=O)(=O)c2cccc(S(=O)(=O)N3CC[C@H]4CC[C@@H](C(=O)NC(c5ccccc5)c5ccccc5)N4C(=O)[C@@H](NC(=O)[C@H](C)NC)C3)c2)CC[C@H]2CC[C@@H](C(=O)NC(c3ccccc3)c3ccccc3)N2C1=O	18.9 µM	47.8 µM	18 µM	50.2 µM	5.64 µM	26.8 µM	21 µM	44.5 µM	12.2 µM	25.2 µM	31.7 µM	> 100 µM	9.56 µM	34.3 µM	11 µM	27.2 µM	26.5 µM	> 100 µM	1.09 µM	17.9 µM
O=C1c2cccc(Oc3ccccc3)c2C(=O)c2cccc(Oc3ccccc3)c21	7.68 µM	> 100 µM	> 100 µM	> 100 µM	> 100 µM	> 100 µM	> 100 µM	> 100 µM	> 100 µM	> 100 µM	> 100 µM	> 100 µM	> 100 µM	> 100 µM	> 100 µM	> 100 µM	> 100 µM	> 100 µM	> 100 µM	> 100 µM
O=C1C=C[C@H](O)[C@@]2(CO)O[C@@H]12	30.6 µM	> 83.6 µM	9.25 µM	23.6 µM	13.2 µM	31.9 µM	10.1 µM	29.8 µM	3.31 µM	10.7 µM	2.23 µM	5.33 µM	16.1 µM	29.7 µM	17.2 µM	31 µM	3.35 µM	> 75.5 µM	15.8 µM	31.3 µM
O=C(Nc1cccc(-n2cc(-c3ccncc3)c(-c3cc(O)cc(Cl)c3)n2)c1)c1ccc(N2CCOCC2)c(C(F)(F)F)c1	2.94 µM	> 100 µM	2.36 µM	8.48 µM	1.64 µM	> 100 µM	5.12 µM	> 100 µM	7.2 µM	> 100 µM	2.83 µM	7.06 µM	2.33 µM	8.49 µM	1.82 µM	7.95 µM	0.564 µM	4.88 µM	3.65 µM	38.8 µM
CCNc1nc(O)c(/C=C2\C=Nc3ncccc32)s1	2.95 µM	8.29 µM	4.17 µM	15.5 µM	3.27 µM	> 100 µM	4.66 µM	> 100 µM	2.66 µM	8.49 µM	3.42 µM	27.1 µM	3 µM	9.47 µM	4.92 µM	36.7 µM	10 µM	> 100 µM	2.57 µM	11.5 µM
O=C1/C(=C\c2ccccc2)CN(C(=O)CCN2CCCCC2)C/C1=C/c1ccccc1	–	5.87 µM	–	3.52 µM	–	5.47 µM	–	4.48 µM	–	6.5 µM	–	0.364 µM	–	3.3 µM	–	2.81 µM	–	0.799 µM	–	4.51 µM
Cc1ccc(O)cc1Nc1ccnc2ccc(S(C)(=O)=O)cc12	0.42 µM	4.25 µM	0.957 µM	> 25 µM	3.53 µM	16.4 µM	0.478 µM	2.12 µM	4.82 µM	> 22.8 µM	15.2 µM	> 25 µM	10.4 µM	> 25 µM	10 µM	> 25 µM	0.161 µM	> 25 µM	5.97 µM	> 25 µM
O=C(/C=C/C12c3ccccc3C(c3ccccc31)C1C(=O)NC(=O)C12)c1ccccn1 (centres undefined)	3.2 µM	23 µM	1.88 µM	3.56 µM	1.8 µM	5.54 µM	1.36 µM	6.53 µM	1.45 µM	2.88 µM	1.69 µM	5.03 µM	1.7 µM	3.2 µM	1.88 µM	3.51 µM	1.37 µM	18.1 µM	1.89 µM	4.07 µM
CCN1C(=S)N(CC)C2C1NC(=S)N2/N=C/C=C/c1ccccc1OC (centres undefined)	0.322 µM	> 100 µM	21.8 µM	> 100 µM	0.538 µM	> 41.2 µM	0.506 µM	> 100 µM	0.174 µM	0.64 µM	0.338 µM	> 100 µM	0.137 µM	3.53 µM	0.392 µM	25.3 µM	0.129 µM	> 72.1 µM	0.466 µM	> 100 µM
Nc1nc2c(c3cnccc13)C(c1ccc(Cl)c(Cl)c1)Cc1cnccc1-2 (centres undefined)	0.818 µM	22 µM	14.8 µM	29.1 µM	2.69 µM	15 µM	1.85 µM	17.8 µM	0.382 µM	5.86 µM	0.449 µM	11.5 µM	0.58 µM	3.83 µM	1.65 µM	7.37 µM	0.452 µM	32.8 µM	1.14 µM	9.13 µM
COc1ccc(OC)c(/C=C/c2nc(=S)n(-c3ccc(Cl)cc3)[nH]2)c1	3.1 µM	> 100 µM	> 100 µM	> 100 µM	28.4 µM	> 100 µM	4.38 µM	> 100 µM	3.34 µM	21.4 µM	5.09 µM	> 100 µM	3.58 µM	> 100 µM	13.3 µM	> 100 µM	4.95 µM	> 100 µM	5.88 µM	> 100 µM
c1ccc(-c2[nH]ncc2-c2ccnc(-c3ccc(OCCn4ccnc4)cc3)c2)nc1	> 25 µM	> 25 µM	> 25 µM	> 25 µM	14.4 µM	> 25 µM	> 25 µM	> 25 µM	22.4 µM	> 25 µM	> 25 µM	> 25 µM	8.1 µM	> 25 µM	> 25 µM	> 25 µM	6.44 µM	> 25 µM	> 25 µM	> 25 µM
Cc1cccc(NC(=O)c2sc3nc4c(cc3c2N)C(=O)CCC4)c1	0.291 µM	12.9 µM	–	> 100 µM	1.23 µM	> 91.9 µM	0.68 µM	> 60.8 µM	0.257 µM	1.18 µM	0.212 µM	> 65.8 µM	0.115 µM	> 57.4 µM	0.54 µM	> 100 µM	0.105 µM	> 100 µM	0.67 µM	> 60.4 µM
CC1=C(C(=O)Nc2ccccc2)C(c2ccc(N(C)C)cc2)C(C(=O)Nc2ccccc2)=C(C)N1	–	> 100 µM	–	> 100 µM	–	> 100 µM	–	> 88.3 µM	–	> 100 µM	–	> 83 µM	–	7.98 µM	–	23.4 µM	–	> 69.1 µM	–	> 100 µM
